19 compounds from patent US20240316051A1, “A PHARMACEUTICAL COMBINATION AND USE THEREOF” (Ascentage Pharma (Suzhou) Co., Ltd., priority 2021, published 2024) can be followed below.

The target of one assay is T1, EED (1-441)-His protein (Homo sapiens, UniProt O75530).
T1 construct: 20 nM EED (1-441)-His protein
T1 sequence (O75530 whole entry): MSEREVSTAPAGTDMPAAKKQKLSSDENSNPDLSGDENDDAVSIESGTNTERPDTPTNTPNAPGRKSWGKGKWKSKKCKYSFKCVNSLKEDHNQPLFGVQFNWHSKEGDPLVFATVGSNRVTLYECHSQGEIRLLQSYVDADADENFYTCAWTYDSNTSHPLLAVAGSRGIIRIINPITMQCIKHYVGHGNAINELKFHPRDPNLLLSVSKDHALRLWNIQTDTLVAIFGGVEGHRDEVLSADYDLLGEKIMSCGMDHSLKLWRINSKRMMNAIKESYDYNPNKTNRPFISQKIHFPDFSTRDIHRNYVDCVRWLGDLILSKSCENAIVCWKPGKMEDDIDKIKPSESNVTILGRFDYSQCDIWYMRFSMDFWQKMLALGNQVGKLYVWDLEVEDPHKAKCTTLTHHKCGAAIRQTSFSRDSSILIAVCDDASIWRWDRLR
The assay can be described thus: EED-H3K27Me3 peptide competition binding assay by AlphaScreen. The note with it: IC50 class, Table 4B, read-out: Alpha screen. How it is done:
EED-H3K27Me3 Peptide Competition Binding Assay by AlphaScreen (α-Screen):
The compounds at each concentration (2.5 μl of each) were transferred into a 384-well Perkin Elmer OptiPlate-384 white plates. 5 μl of solutions containing 20 nM EED (1-441)-His protein in the buffer (25 mM HEPES, pH 8, 0.02% Tween-20, 0.5% BSA) were added to the wells and then incubated with compound for 15 min. 2.5 μl of solutions containing 20 nM biotin-H3K27Me3 (19-33) peptide in the buffer (25 mM HEPES, pH 8, 0.02% Tween-20, 0.5% BSA) were added to the wells and then incubated with compound for 30 min. AlphaScreen detection beads mix was prepared immediately before use by mixing nickel chelate acceptor beads and streptavidin donor beads in a 1:1 ratio (Perkin Elmer, Product No. 6760619C/M/R) into the buffer described above. Then 10 μl of the detection beads mix was added to the plate and incubated in the dark at RT for 1 h. The final concentration of donor and acceptor beads was 10 μg/ml for each. Plates were read on CLARIOStar plate reader (BMG Labtech) using the AlphaScreen setting adapted for optimal signal detection with a 615 nm filter, after sample excitation at 680 nm. The emission signal at 615 nm was used to quantify compound inhibition. AlphaScreen signals were normalized based on the reading coming from the positive (maximum signal control) and negative controls (minimum signal control) to give percentage of activities left. The data were then fit to a dose response equation to get the IC50 values.
(In general: In Alpha technology, singlet oxygen from a donor bead excites a nearby acceptor bead.)
For `Cc1ccc2c(n1)CN(C(C)C)C(=O)c1ncn3c(NCc4c(F)ccc5c4CCO5)ncc-2c13` [E 1, 12-(((5-fluoro-2,3-dihydrobenzofuran-4-yl)methyl)amino)-4-isopropyl-7-methyl-4,5-dihydro-3H-2,4,6,11,12a-pentaazabenzo[4,5]cycloocta[1,2,3-cd] inden-3-one], the IC50 was less than 10 nM. The same measure, in the same setting: next, `Cc1ccc2c(n1)CN(CC(F)(F)F)C(=O)c1ncn3c(NCc4c(F)ccc5c4CCCO5)ncc-2c13` [E 39, 12-(((6-fluorochroman-5-yl)methyl)amino)-7-methyl-4-(2,2,2-trifluoroethyl)-4,5-dihydro-3H-2,4,6, 11,12a-pentaazabenzo[4,5]cycloocta[1,2,3-cd] inden-3-one]: 10 to 100 nM. As to `Cc1ccc2c(n1)CCN(CC(F)(F)F)C(=O)c1ncn3c(NCc4c(F)ccc5c4CCO5)ncc-2c13` [E 30, 13-(((5-fluoro-2,3-dihydrobenzofuran-4-yl)methyl)amino)-8-methyl-4-(2,2,2-trifluoroethyl)-5,6-dihydro-2,4,7,12,13a-pentaazabenzo[4,5] cyclonona[1,2,3-cd]inden-3(4H)-one], the IC50 was 10 to 100 nM.

Staying with this assay, now noted: Table 4A, read-out: Alpha screen.
For `O=C1OCc2cc(C(F)(F)F)ccc2-c2cnc(NCc3c(F)ccc4c3CCO4)n3cnc1c23` [Compound 8, 12-(((5-fluoro-2,3-dihydrobenzofuran-4-yl)methyl)amino)-7-(trifluoromethyl)-3H,5H-4-oxa-2,11,12a-triazabenzo[4,5]cycloocta[1,2,3-cd]inden-3-one], the IC50 was 1.97 nM. Same read-out and setting: next, `COc1cccc(F)c1CNc1ncc2c3c(ncn13)C(=O)OCc1cc(C(F)(F)F)ccc1-2` [Compound 28, 12-((2-fluoro-6-methoxybenzyl)amino)-7-(trifluoro-methyl)-3H,5H-4-oxa-2,11,12a-triazabenzo[4,5] cycloocta[1,2,3-cd]inden-3-one]: 2.58 nM; `COCCN1Cc2nc(C(F)(F)F)ccc2-c2cnc(NCc3c(F)ccc4c3CCO4)n3cnc(c23)C1=O` [Compound 57, 12-(((5-fluoro-2,3-dihydrobenzofuran-4-yl)methyl)amino)-4-(2-methoxyethyl)-7-(trifluoromethyl)-4,5-dihydro-3H-2,4,6,11,12a-pentaazabenzo[4,5] cycloocta[1,2,3-cd]inden-3-one]: 4.2 nM; `Cc1ccc2c(n1)CN(CC1CC(C)(O)C1)C(=O)c1ncn3c(NCc4c(F)ccc5c4CCO5)ncc-2c13` (stereo not shown) [Compound 50, 12-(((5-fluoro-2,3-dihydrobenzofuran-4-yl)methyl)amino)-4-((3-hydroxy-3-methylcyclobutyl)methyl)-7-methyl-4,5-dihydro-3H-2,4,6,11,12a-pentaaza benzo[4,5]cycloocta[1,2,3-cd]inden-3-one]: 1.16 nM.

As to `O=C1NCc2c(F)cccc2-c2cnc(NCc3c(F)ccc4c3CCO4)n3cnc1c23` [Compound 20, 6-fluoro-12-(((5-fluoro-2,3-dihydrobenzofuran-4-yl)methyl)amino)-4,5-dihydro-3H-2,4,11,12a-tetra azabenzo[4,5]cycloocta[1,2,3-cd]inden-3-one], the IC50 turned out to be 0.61 nM. The same measure, in the same setting: next, `COc1cccc(F)c1CNc1ncc2c3c(ncn13)C(=O)N(C(C)C)Cc1nc(C(F)(F)F)ccc1-2` [Compound 71, 12-((2-fluoro-6-methoxybenzyl)amino)-4-isopropyl-7-(trifluoromethyl)-4,5-dihydro-3H-2,4,6,11,12a-pentaazabenzo[4,5]cycloocta[1,2,3-cd]inden-3-one]: 8.94 nM; `CC(C)(O)CN1Cc2cc(C(F)(F)F)ncc2-c2cnc(NCc3c(F)ccc4c3CCO4)n3cnc(c23)C1=O` [Compound 48, 12-(((5-fluoro-2,3-dihydrobenzofuran-4-yl)methyl)amino)-4-(2-hydroxy-2-methylpropyl)-7-(trifluoro-methyl)-4,5-dihydro-3H-2,4,8,11,12a-pentaaza-benzo[4,5]cycloocta[1,2,3-cd]inden-3-one]: 1.65 nM. On the same count and under the same terms, next, `Cc1ccc2c(n1)CNC(=O)c1ncn3c(NCc4c(F)ccc5c4CCO5)ncc-2c13` [Compound 21, 12-(((5-fluoro-2,3-dihydrobenzofuran-4-yl)methyl)amino)-7-methyl-4,5-dihydro-3H-2,4,6,11,12a-pentaazabenzo[4,5]cycloocta[1,2,3-cd]inden-3-one]: 0.55 nM; `CN1Cc2cc(C(F)(F)F)ncc2-c2cnc(NCc3c(F)ccc4c3CCO4)n3cnc(c23)C1=O` [Compound 34, 12-(((5-fluoro-2,3-dihydrobenzofuran-4-yl)methyl)amino)-4-methyl-7-(trifluoromethyl)-4,5-dihydro-3H-2,4,8,11,12a-pentaazabenzo[4,5]cycloocta [1,2,3-cd]inden-3-one]: 0.67 nM. Same read-out and setting: next, `O=C1OCc2nc(C(F)(F)F)ccc2-c2cnc(NCc3c(F)ccc4c3CCO4)n3cnc1c23` [Compound 14, 12-(((5-fluoro-2,3-dihydrobenzofuran-4-yl)methyl)amino)-7-(trifluoromethyl)-3H,5H-4-oxa-2,6,11, 12a-tetraazabenzo[4,5]cycloocta[1,2,3-cd]inden-3-one]: 3.35 nM; `O=C1c2ncn3c(NCc4c(F)ccc5c4CCO5)ncc(c23)-c2ccc(C(F)(F)F)cc2CN1CCF` [Compound 61, 12-(((5-fluoro-2,3-dihydrobenzofuran-4-yl)methyl)amino)-4-(2-fluoroethyl)-7-(trifluoromethyl)-4,5-dihydro-3H-2,4,11,12a-tetraazabenzo[4,5] cycloocta[1,2,3-cd]inden-3-one]: 1.19 nM; `O=C1OCc2cc(OC(F)(F)F)ccc2-c2cnc(NCc3c(F)ccc4c3CCO4)n3cnc1c23` [Compound 31, 12-(((5-fluoro-2,3-dihydrobenzofuran-4-yl)methyl)amino)-7-(trifluoromethoxy)-3H,5H-4-oxa-2,11, 12a-triazabenzo[4,5]cycloocta[1,2,3-cd]inden-3-one]: 0.604 nM. With `COc1cccc(F)c1CNc1ncc2c3c(ncn13)C(=O)N(C1CC1)Cc1cc(C(F)(F)F)ncc1-2` [Compound 70, 4-cyclopropyl-12-((2-fluoro-6-methoxybenzyl)amino)-7-(trifluoromethyl)-4,5-dihydro-3H-2,4,8, 11,12a-pentaazabenzo[4,5]cycloocta[1,2,3-cd] inden-3-one], the IC50 is greater than 100 nM. Still for that read-out and setting: next, `Fc1ccc2c(c1CNc1ncc3c4c(ncn14)COCc1ncccc1-3)CCO2` [Compound 2, N-((5-fluoro-2,3-dihydrobenzofuran-4-yl)methyl)-3H,5H-4-oxa-2,6,11,12a-tetraazabenzo[4,5]cycloocta[1,2,3-cd]inden-12-amine]: greater than 10 nM; `O=C1OCc2ccc(C(F)(F)F)nc2-c2cnc(NCc3c(F)ccc4c3CCO4)n3cnc1c23` [Compound 29, 12-(((5-fluoro-2,3-dihydrobenzofuran-4-yl)methyl)amino)-8-(trifluoromethyl)-3H,5H-4-oxa-2,9,11, 12a-tetraazabenzo[4,5]cycloocta[1,2,3-cd]inden-3-one]: 20.7 nM; `Cc1nc2c(s1)-c1cnc(NCc3c(F)ccc4c3CCO4)n3cnc(c13)C(=O)N(C1CC1)C2` [Compound 86, 4-cyclopropyl-11-(((5-fluoro-2,3-dihydrobenzofuran-4-yl)methyl)amino)-7-methyl-4,5-dihydro-3H-8-thia-2,4,6,10,11a-pentaazacyclopenta[4,5] cycloocta[1,2,3-cd]inden-3-one]: 2.56 nM.
